Patent US7683061B2, “Triazine dimers for the treatment of autoimmune diseases” (ProMetic BioSciences Inc., priority 2003, dated 2010)
Where two headings read alike, the source gives them in different places.

What was measured:
[1] = target: T1, TNFα / p55 TNFα receptor (CD120a) (Homo sapiens, UniProt P01375); experiment: Binding ELISA: TNF-α binding to plastic coated TNF-R1; conditions: for inhibition at 100 µM: 10^−4 M; for inhibition at 10 µM: 10^−5 M
Procedure: (§1) Compounds were tested for their ability to bind to TNFα or inhibit the interaction of TNFα with its respective receptors; p55 and p75 TNFα receptor. Three binding ELISA assays were undertaken as described by Mancini et al. Biochemical Pharmacology 58, 851-859 (1999). TNFα or receptor (1 μg/mL) was coated on a 96-well plate Maxisorp, overnight at 4° C. After incubation, unbound TNFα or p55 TNFα receptor or p75 TNFα receptor was removed and the plate washed three times with PBS. The plate was then incubated with 100 μL/well of a 2% BSA solution for 1 h at 37° C. to block non specific protein binding. After incubation, the plate was washed three times with PBS. Biotinylated recombinant human TNFα p55 or p75 receptor or biotinylated recombinant human TNFα was added to the wells in the presence or absence of compounds. The plate was incubated for 1 h at 37° C. After incubation, the plate was washed three times with PBS to remove unbound labeled p55 or p75 receptor or recombinant human TNFα. 100 μL of avidin-HRP (diluted 1/2000 in PBS-0.1% BSA) was added to each well and incubated 1 h at 37° C. Bound p55 or p75 receptor or recombinant human TNFα was detected by the addition of 200 μL of 3,3′,5,5′-tetramethylbenzidine (TMB) per well for 15 min. The plate was then read at 655 nm on a EL 800 universal Microplate reader (Bio-Tek, Mississauga, Canada). Data was analyzed in Microsoft Excel and recorded as the percentage of inhibition of p55 or p75 binding to TNFα or TNFα binding to RI (p55) or RII (p75).

[2] = tested on: TNFα-induced apoptosis, WEHI-13VAR cells; experiment: TNFα induced apoptosis in WEHI-13VAR cells (MTT); assay type: cell-based, murine; conditions: Mus musculus; for inhibition at 10 µM: 1 × 10^−5M; for inhibition at 20 µM: 2 × 10^−5M; for inhibition at 40 µM: 4 × 10^−5M; for inhibition at 5 µM: 5 × 10^−6M
Procedure: Effect of compounds on TNFα-induced apoptosis was measured by a standard biological assay using WEHI-13VAR cells. These cells undergo apoptosis when they are incubated in the presence of TNFα and actinomycin D. 2×10^4 WEHI-13VAR cells were incubated in RPMI supplemented with 1% sodium pyruvate and 10% FBS, overnight at 37° C. for cell adherence. The cells were then cultured in the presence of 1 μg/mL of actinomycin D (to inhibit protein synthesis) and 0.04 nM TNFα with or without compounds at 37° C. After 16-24 h, 50 μL of a solution of 2 mg/mL of MTT was added to each well and the plate was then incubated for 4 h at 37° C. Only viable cells metabolize MTT to form formazan salt, which is detectable by the measurement of absorbance at 570 nm. After the incubation, the plate was inverted to remove medium and dead cells. 150 μL DMSO was added to each well to stop the reaction and solubilize the formazan salt. Optical density was read on a EL 800, universal Microplate reader (Bio-Tek). A decrease in the optical density is direct evidence of cell apoptosis induced by TNFα. Compounds were also compared to the activity of an anti-TNFα neutralizing antibody.

[3] = target: T2, TNFα / p75 TNFα receptor (CD120b) (Homo sapiens, UniProt P01375); experiment: Binding ELISA: sTNF-R2 binding to plastic coated TNF-α; conditions: for inhibition at 100 µM: 10^−4 M; for inhibition at 10 µM: 10^−5 M
Procedure: as §1

[4] = target: T3, Fc portion of human IgG (binding of protein A to human IgG); experiment: Competitive protein A binding ELISA; conditions: Table 1
T3 construct: fused on or other part: Horseradish peroxidase chemically conjugated to the IgG (HRP-IgG)
Procedure: As described above, this assay evaluates the ability of the exemplified compounds to mimic protein A. Such compounds can bind to the Fc portion of human IgG as ascertained by the inhibition of binding of protein A to human IgG. The competitive protein A binding ELISA assay was performed on a 96-well plate Maxisorp surface to enhance the binding of protein A to the bottom of the plate. The wells were coated with 100 μL of protein A (0.8 μg) and incubated overnight at 4° C. After incubation, unbound protein A was removed by three washes with phosphate buffer saline (PBS). The plate was then incubated with 100 μL/well of a 2% solution of bovine serum albumin (BSA) for 1 h at 37° C. to block non specific protein binding. After incubation, the plate was washed to times with PBS. 50 μL of compound or protein A, diluted in PBS or PBS-20% DMSO at appropriate concentration, were added to the wells followed by addition of 50 μL of peroxidase-conjugated human IgG (HRP-IgG). After 1 h incubation at 37° C., the plate was washed free times with PBS to remove unbound HRP-IgG. Bound HRP-IgG was detected by incubation with 100 μL of 2,2′-Azino-di[3-ethylbenzothiazoline sulfonate]diammonium salt crystals (ABTS) solution for 20 min in the dark at room temperature. The plate was then read at 405 nm on a EL 800, universal Microplate reader (Bio-Tek). Data was analyzed in Microsoft Excel and the concentration of compound which inhibits 50% binding of protein A (IC50) was calculated using Prism software.
Table 1 represents the IC50 of compounds tested in the competitive protein A binding ELISA assay, which consists of a side-by-side analysis in PBS and PBS-20% DMSO. DMSO was used to increase the solubility of some of the compounds.

[5] = target: T1, TNFα / p55 TNFα receptor (CD120a); experiment: Binding ELISA: sTNF-R1 binding to plastic coated TNF-α; conditions: for inhibition at 100 µM: 10^−4 M; for inhibition at 10 µM: 10^−5 M
Procedure: as §1

[6] = target: T2, TNFα / p75 TNFα receptor (CD120b); experiment: Binding ELISA: TNF-α binding to plastic coated TNF-R2; conditions: for inhibition at 100 µM: 10^−4 M; for inhibition at 10 µM: 10^−5 M
Procedure: as §1

[7] = tested on: TNFα production, J774A-1 cells; experiment: LPS-induced TNFα production in J774A-1 cells (ELISA); assay type: cell-based; conditions: Mus musculus, J774.A1, 24 h, read-out: IC50 (μM), inhibition of TNFα released by LPS induction
Procedure: Effect of compounds on TNFα production was measured by ELISA using J774-1 cells stimulated by LPS. J774-1 cells were cultured in the presence or absence of LPS and compound. Cells were cultured at 37° C. for 24 h and thereafter the supernatants were collected for the determination of the concentration of TNFα by ELISA as recommended by the manufacturer (BD Biosciences). Data was analyzed in Microsoft Excel and the concentration of compound which inhibits 50% of TNFα production (IC50) was calculated using Prism software.

RAW 264.7 cells = experiment: Phagocytosis of FITC-immune complexes by RAW 264.7 cells; assay type: cell-based; conditions: Mus musculus, RAW264.7; 20 μM; read-out: inhibition of phagocytosis of IC
Procedure: This assay was performed to determine the ability of protein A mimic compounds to stimulate or inhibit uptake of FITC-Immune Complex (IC). FITC-IC was prepared by mixing human serum albumin (HSA)-fluorescein isothiocyanate (FITC) with mouse IgG anti-HSA at a 1:4 ratio (four molecules of antibody for one molecule of antigen) on a rotary shaker for 1 h at room temperature. Soluble IC was then incubated with or without compounds or protein A for 10 min. This mixture was added to RAW 264.7 cells and incubated for 2 h at 37° C. for IC phagocytosis. After incubation, cells were washed twice in cold PBS (5 min, 1200 rpm) and fixed with 500 μL PBS containing 2% formaldehyde. FITC signal taken up by RAW 264.7, which is indicative of IC phagocytosis, was determined by flow cytometry analysis in a Becton Coulter counter with an argon laser and signal was measured through a 530/30 nm filter.

MRL/lpr mice = experiment: SLE-like syndrome in MRL/lpr mice; assay type: in vivo; conditions: control group 10%
Description: FIG. 5 is an example of the effect of compounds on survival of MRL/lpr mice. These mice also spontaneously develop SLE-like syndrome. MRL/lpr have a homozygous fas mutation, which accelerates autoimmunity. […] Furthermore, compounds 1 and 20 increase the survival (40%) compared to the control group (10%).

[8] = tested on: female Lewis rats, adjuvant-induced arthritis; experiment: Freund's adjuvant-induced arthritis (AIA); assay type: in vivo
Description: AIA was induced in female Lewis rats by the injection of lyophilized Mycobacterium butyricum suspended in mineral oil into the footpad. The development of aridity was monitored over a 3 weeks period post-adjuvant injection, inflammation peaks at day 3 following the adjuvant administration. Immune activation appears around day 14. Compounds were orally or intravenously administered at different doses at day −3, −2 and −1 pre-adjuvant injection and at different regimen as specified in the exponent starting from day 10 through 21 post-adjuvant injection or animals were treated with oral admiration of compound 19a from day −3 to day 21. Body weight was recorded. The arthritis index, which is a measure of inflammation (oedema), redness and stiffness of the articulations, was used to monitor the development of the disease. The degree of arthritis was determined by measuring two perpendicular diameters of the ankles in the mediolateral and dorsoventral planes using a caliper. Joint circumference in millimeters is then calculated using a geometric formula. Both the incidence and severity of the arthritis was evaluated. Incidence is defined as the number of rats with clinical evidence of joint inflammation during the study period.

[9] = tested on: female Lewis rats, collagen-induced arthritis; experiment: Collagen-induced arthritis (CIA); assay type: in vivo; conditions: intravenous; by day 14 and beyond
Procedure: Collagen-induced arthritis (CIA) was induced in female Lewis rats by intradermal administration of heterologous (bovine) type II collagen (250 μg) solubilized in 0.1 M acetic acid and emulsified in Complete Freund's Adjuvant (CFA). Rats were treated with the vehicle or methotrexate or compound 1 by intravenous injections at day 8, 9, 12, 14 and 16. Synovitis typically develops 12-15 days postimmunization in 80-90% of the animals. Once arthritis appears, each paw was examined two to three times a week. Both the incidence and severity of the arthritis was evaluated. Incidence is defined as the number of rats with clinical evidence of joint inflammation during the study period while severity was quantified by scoring daily each paw integer on a scale of 0 to 4 (0=normal, 4=maximum; Table 7) based on increasing levels of swelling, periarticular erythema and stiffness. The sum of the scores for all four paws was calculated as the arthritic index with a maximum possible score of 16 per rat. Since CIA primarily affects hind limbs, scores of 6-8 represent severe arthritis.

[10] = PBS-20% DMSO, read-out: IC50 (μM): Assay in PBS-20% DMSO
[11] = PBS, read-out: IC50 (μM): Assay in PBS

T2 sequence (P01375 77-233 limits assumed): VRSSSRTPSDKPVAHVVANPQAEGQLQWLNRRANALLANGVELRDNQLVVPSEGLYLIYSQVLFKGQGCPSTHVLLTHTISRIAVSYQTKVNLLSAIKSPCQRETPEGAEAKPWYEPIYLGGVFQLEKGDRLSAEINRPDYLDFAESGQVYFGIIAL
T1 sequence (P01375 77-233 limits assumed): as above

SMILES: NCCc1ccc(Nc2nc(NCCNc3nc(Nc4ccccc4)nc(Nc4ccc(CCN)cc4)n3)nc(Nc3ccccc3)n2)cc1 [Compound 4]
- inhibition at 100 µM [1]: -69.4%
- inhibition at 10 µM [1]: -47.4%
- inhibition at 10 µM [2]: 11.2%
- inhibition at 20 µM [2]: 25.3%
- inhibition at 40 µM [2]: 44%
- inhibition at 5 µM [2]: 2.4%
- inhibition at 100 µM [3]: 5.26%
- inhibition at 10 µM [3]: 2.06%
- IC50 [4, 10]: 40 µM
- IC50 [4, 11]: 44 µM
- inhibition at 100 µM [5]: 2.19%
- inhibition at 10 µM [5]: 4.5%
- inhibition at 100 µM [6]: -105%
- inhibition at 10 µM [6]: -86.7%
- IC50 [7]: 94.4 µM

SMILES: Cc1ccccc1Nc1nc(NCCNc2nc(NCCc3ccc(O)cc3)nc(Nc3ccccc3C)n2)nc(NCCc2ccc(O)cc2)n1 [Compound 5]
- inhibition at 100 µM [1]: 15.4%
- inhibition at 10 µM [1]: 4.6%
- inhibition at 10 µM [2]: 35.1%
- inhibition at 20 µM [2]: 38.7%
- inhibition at 40 µM [2]: 35.4%
- inhibition at 5 µM [2]: 28.9%
- inhibition at 100 µM [3]: 2.68%
- inhibition at 10 µM [3]: 4.31%
- IC50 [4, 10]: 36 µM
- inhibition at 100 µM [5]: 1.54%
- inhibition at 10 µM [5]: 2.95%
- inhibition at 100 µM [6]: 38.5%
- inhibition at 10 µM [6]: 21.2%
- IC50 [7]: 44 µM

SMILES: N=C(N)NCCNc1nc(NCCc2ccc(Oc3nc(NCCc4ccc(O)cc4)nc(Nc4ccccc4)n3)cc2)nc(Nc2ccccc2)n1 [Compound 14]
- inhibition at 20 µM (RAW 264.7 cells): ~50%
- IC50 [4, 10]: 63 µM
- IC50 [4, 11]: 33 µM
- IC50 [7]: 11.8 µM

SMILES: OCCNc1nc(NCCc2ccc(Nc3nc(NCCc4ccc(O)cc4)nc(Nc4ccccc4)n3)cc2)nc(Nc2ccccc2)n1 [Compound 20]
- survival of MRL/lpr mice (MRL/lpr mice): 40%
- IC50 [4, 10]: 26 µM
- IC50 [7]: 23.3 µM

SMILES: Oc1ccc(CCNc2nc(NCCCNc3nc(NCCc4ccc(O)cc4)nc(Nc4ccccc4)n3)nc(Nc3ccccc3)n2)cc1 [Compound 25]
- inhibition at 100 µM [1]: 22.9%
- inhibition at 10 µM [1]: 3.95%
- inhibition at 10 µM [2]: 22.8%
- inhibition at 20 µM [2]: -0.7%
- inhibition at 40 µM [2]: -17.8%
- inhibition at 5 µM [2]: 27.5%
- inhibition at 100 µM [3]: 4.22%
- inhibition at 10 µM [3]: 6.76%
- inhibition at 100 µM [5]: 5.65%
- inhibition at 10 µM [5]: 6.74%
- inhibition at 100 µM [6]: 49.2%
- inhibition at 10 µM [6]: 4.8%
- IC50 [7]: 15.9 µM

SMILES: CN(Cc1cnc2nc(N)nc(N)c2n1)c1ccc(C(=O)N[C@@H](CCC(=O)O)C(=O)O)cc1 [methotrexate, reference compound]
- inhibition of chronic inflammation (days 12 to 21) ([8]; days 15 to 21): strong and significant inhibition of inflammation
- reduction in the severity of arthritis (inflammatory index) ([8]; intravenous, by day 19 and over, FIG. 10): 50%
- reduction in the severity of arthritis (arthritic index) [9]: 50%
